Numbers after ± are expanded uncertainties.
Settings: 101.33 kPa, Liquid, Vibrating tube method

Structure (SMILES) | mass density (313.15 K) [kg/m3] | mass density (298.15 K) [kg/m3] | further results
Cc1ccc(O)cc1 [4-methylphenol] | 1018.8 ± 0.08 |  | 
Cc1cccc(O)c1 [3-methylphenol] |  |  | mass density (293.15 K): 1033.85 ± 0.09 kg/m3
Oc1ccccc1 [phenol] | 1058.3 ± 0.11 |  | 
Cc1ccccc1O [2-methylphenol] |  |  | mass density (308.15 K): 1032.73 ± 0.28 kg/m3

Now from value to compound, other results behind:

mass density (313.15 K) [kg/m3] | mass density (298.15 K) [kg/m3] | Structure (SMILES) | further results
 | 698.49 ± 0.23 | CCCCCCCC [octane] | 
 | 679.43 ± 0.23 | CCCCCCC [heptane] | 
